Like-named read-outs stand apart in the source and are kept apart here.
Legend:
[1] = system: relevant ATCC QC organisms; conditions: CLSI established QC range, cited from earlier work
[2] = system: vancomycin-intermediate Staphylococcus aureus; test: Broth microdilution MIC (Example 6); type: cell-based
In short: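 CLSI broth microdilution in cation-adjusted Mueller Hinton broth, test agents 0.06-64 μg/mL from DMSO stocks, inoculum approx. 5×10^5 CFU/mL. Incubation 35° C for 16–20 hr; MIC taken as lowest concentration inhibiting visible growth.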

[3] = system: Cutibacterium [Propionibacterium] acnes; test: MIC of baseline clinical isolates (Example 8); type: cell-based; conditions: Cutibacterium (Proprionibacterium) acnes baseline isolates (N′ = 3), central laboratory, mITT
In short: (§1)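 Isolates came from samples taken on Day 1 and at any later surgery at the index site: infected bone or tissue next to implants, deep infection-site swabs, and superficial tissue, wound closure or sinus tract. Local clinical laboratories analysed parallel sample sets to guide antibiotic treatment.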

[4] = system: S. aureus (MRSA, MSSA); test: MIC of baseline clinical isolates (Example 8); type: cell-based; conditions: Staphylococcus aureus, MRSA baseline isolates (N′ = 4), central laboratory, mITT
In short: as §1

[5] = system: Staphylococcus pasteuri; test: MIC of baseline clinical isolates (Example 8); type: cell-based; conditions: Staphylococcus pasteuri baseline isolates (N′ = 1), central laboratory, mITT
In short: as §1

[6] = system: E. faecium; test: Broth microdilution MIC (Example 5); type: cell-based; conditions: VRE vanA
In short: (§2)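 CLSI broth microdilution with serial two-fold drug dilutions and a standardized inoculum from a 0.5 McFarland suspension. Bacteria incubated at 35 °C for 16-24 hr. MIC endpoints read visually per CLSI criteria.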

[7] = system: S. aureus; test: Broth microdilution MIC (Example 5); type: cell-based, Staphylococcus aureus; conditions: Staphylococcus aureus
In short: as §2

[8] = ATCC 29213 / MSSA, S. aureus MMX 101 (ATCC 29213), QC, MSSA

NCC[C@H](O)C(=O)N[C@@H]1C[C@H](N)[C@@H](O[C@H]2O[C@H](CN)[C@@H](O)[C@H](O)[C@H]2O)[C@H](O)[C@H]1O[C@H]1O[C@H](CO)[C@@H](O)[C@H](N)[C@H]1O [Amikacin]
MIC QC range (in parentheses) ([1]; P. aeruginosa ATCC 27853): (1-4) μg/mL

CCC[C@@H]1C[C@@H](C(=O)N[C@@H]([C@H]2O[C@H](SC)[C@H](O)[C@@H](O)[C@H]2O)[C@H](C)Cl)N(C)C1 [CLI]
MIC ([2]; S. aureus isolate NRS 1 (hVISA)): >8 µg/mL
MIC ([2]; S. aureus isolate NRS 2): >8 µg/mL
MIC ([2]; S. aureus isolate NRS 3): >8 µg/mL
MIC ([2]; S. aureus isolate NRS 4): >8 µg/mL
MIC ([2]; S. aureus isolate NRS 13): 0.06 µg/mL
MIC ([2]; S. aureus isolate NRS 18): >8 µg/mL
MIC ([2]; S. aureus isolate NRS 22): >8 µg/mL
MIC ([2]; S. aureus isolate NRS 24 (hVISA)): >8 µg/mL
MIC ([2]; S. aureus isolate NRS 27): >8 µg/mL
Mean MIC [3]: 0.25 mg/L
n (% resistant) [3]: 0 (0.0) n (%)
Mean MIC [4]: 4.16 mg/L
n (% resistant) [4]: 1 (25.0) n (%)
Mean MIC [5]: 1.00 mg/L
n (% resistant) [5]: 1 (100.0) n (%)
MIC QC range (in parentheses) ([1]; S. aureus ATCC 29213): (0.06-0.25) μg/mL

CC(C)(O/N=C(\C(=O)N[C@@H]1C(=O)N2C(C(=O)[O-])=C(C[n+]3ccccc3)CS[C@H]12)c1csc(N)n1)C(=O)O [Ceftazidime]
MIC ([6]; E. faecium MMX 485): >32 µg/mL
MIC QC range (in parentheses) ([1]; E. coli ATCC 25922): (0.06-0.5) μg/mL
MIC QC range (in parentheses) ([1]; P. aeruginosa ATCC 27853): (1-4) μg/mL

C[C@H]1COc2c(N3CCN(C)CC3)c(F)cc3c(=O)c(C(=O)O)cn1c23 [Levofloxacin]
MIC ([6]; E. faecium MMX 485): >64 µg/mL
MIC ([2]; Staphylococcus aureus, NRS1, S. aureus isolate NRS 1 (hVISA), read-out: MIC): 4 µg/mL
MIC ([2]; Staphylococcus aureus, NRS2, S. aureus isolate NRS 2, read-out: MIC): 4 µg/mL
MIC ([2]; Staphylococcus aureus, NRS3, S. aureus isolate NRS 3, read-out: MIC): > 8 µg/mL
MIC ([2]; Staphylococcus aureus, NRS4, S. aureus isolate NRS 4, read-out: MIC): 4 µg/mL
MIC ([2]; Staphylococcus aureus, NRS13, S. aureus isolate NRS 13, read-out: MIC): 0.12 µg/mL
MIC ([2]; Staphylococcus aureus, NRS18, S. aureus isolate NRS 18, read-out: MIC): 4 µg/mL
MIC ([2]; Staphylococcus aureus, NRS22, S. aureus isolate NRS 22, read-out: MIC): 8 µg/mL
MIC ([2]; Staphylococcus aureus, NRS24, S. aureus isolate NRS 24 (hVISA), read-out: MIC): > 8 µg/mL
MIC ([2]; Staphylococcus aureus, NRS27, S. aureus isolate NRS 27, read-out: MIC): 8 µg/mL
MIC [4]: 8 µg/mL
n (% resistant) [4]: 4 (100.0) n (%)
MIC [5]: 0.25 µg/mL
n (% resistant) [5]: 0 (0.0) n (%)

OCC(S)CS.[Bi] (stereo not shown) [MB-2B, bismuth-2,3-dimercaptopropanol]
MIC [7, 8]: 0.5 µg/mL
MIC ([7]; MRSA, S. aureus MMX 5373): ≤ 0.06 µg/mL
MIC ([7]; MRSA, S. aureus MMX 6311): ≤ 0.06 µg/mL
MIC ([7]; MRSA, S. aureus MMX 9203): 0.25 µg/mL
MIC ([7]; MRSA, S. aureus MMX 9204): ≤ 0.06 µg/mL
MIC ([7]; MRSA, S. aureus MMX 9205): ≤ 0.06 µg/mL
MIC ([7]; MRSA, read-out: MIC values against MRSA, MRSA isolates (Table 5)): < 0.06 µg/mL
MIC ([6]; Enterococcus faecium, VRE, E. faecium MMX 485): 2 µg/mL
MIC ([6]; Enterococcus faecium, VRE, E. faecium MMX 752): 4 µg/mL
MIC ([2]; Staphylococcus aureus, NRS1): 1 µg/mL
MIC ([2]; Staphylococcus aureus, NRS2): 0.5 µg/mL
MIC ([2]; Staphylococcus aureus, NRS3): 2 µg/mL
MIC ([2]; Staphylococcus aureus, NRS4): 1 µg/mL
MIC ([2]; Staphylococcus aureus, NRS13): 1 µg/mL
MIC ([2]; Staphylococcus aureus, NRS18): 1 µg/mL
MIC ([2]; Staphylococcus aureus, NRS22): 2 µg/mL
MIC ([2]; Staphylococcus aureus, NRS24): 1 µg/mL
MIC ([2]; Staphylococcus aureus, NRS27): 1 µg/mL

CC(S)C(C)S.[Bi] (stereo not shown) [MB-6, bismuth-2,3-butanedithiol]
MIC [7, 8]: ≤ 0.06 µg/mL
MIC ([7]; MRSA, S. aureus MMX 5373): ≤ 0.06 µg/mL
MIC ([7]; MRSA, S. aureus MMX 6311): ≤ 0.06 µg/mL
MIC ([7]; MRSA, S. aureus MMX 9204): ≤ 0.06 µg/mL
MIC ([7]; MRSA, S. aureus MMX 9205): ≤ 0.06 µg/mL
MIC ([2]; Staphylococcus aureus, NRS1): 0.12 µg/mL
MIC ([2]; Staphylococcus aureus, NRS2): ≤ 0.06 µg/mL
MIC ([2]; Staphylococcus aureus, NRS24): 1 µg/mL

C[C@@H](O)[C@H]1C(=O)N2C(C(=O)O)=C(S[C@@H]3CN[C@H](C(=O)N(C)C)C3)[C@H](C)[C@H]12 [Meropenem]
MIC ([6]; E. faecium MMX 485): >64 µg/mL
MIC [3]: 0.06 µg/mL
n (% resistant) [3]: 0 (0.0) n (%)
MIC QC range (in parentheses) ([1]; E. coli ATCC 25922): (0.008-0.06) μg/mL
MIC QC range (in parentheses) ([1]; E. coli ATCC 35218): (0.008-0.06) μg/mL
MIC QC range (in parentheses) ([1]; K. pneumoniae ATCC BAA-1705): (8-64) μg/mL
MIC QC range (in parentheses) ([1]; P. aeruginosa ATCC 27853): (0.12-1) μg/mL
